Results from patent US20230021562A1, “[…] D[…]-1 INHIBITORS” (priority 2019, published 2023).
Values joined by “and” are separate entries in the source; they are usually repeats but may differ in a detail not shown here. Equal values may be shown once. Read-outs that look alike come from different tables or passages of the source.

Key:
[1] = system: MOLP-8 human multiple myeloma cell line; test: MOLP8 Caspase-Glo 3/7 luminescent assay; assay type: cell-based; settings: averaged over all runs on all batches
From the text: (§1) MCL-1 is a regulator of apoptosis and is highly over-expressed in tumor cells that escape cell death. The assay evaluates the cellular potency of small-molecule compounds targeting regulators of the apoptosis pathway, primarily MCL-1, Bfl-1, Bcl-2, and other proteins of the Bcl-2 family. Protein-protein inhibitors disrupting the interaction of anti-apoptotic regulators with BH3-domain proteins initiate apoptosis.
The Caspase-Glo® 3/7 Assay is a luminescent assay that measures caspase-3 and -7 activities in purified enzyme preparations or cultures of adherent or suspension cells. The assay provides a proluminescent caspase-3/7 substrate, which contains the tetrapeptide sequence DEVD. This substrate is cleaved to release aminoluciferin, a substrate of luciferase used in the production of light. Addition of the single Caspase-Glo® 3/7 Reagent in an “add-mix-measure” format results in cell lysis, followed by caspase cleavage of the substrate and generation of a “glow-type” luminescent signal.
This assay uses the MOLP-8 human multiple myeloma cell line, which is sensitive to MCL-1 inhibition.
Cell cultures were maintained between 0.2 and 2.0×10^6 cells/mL. The cells were harvested by collection in 50 mL conical tubes. The cells were then pelleted at 500 g for 5 mins before removing supernatant and resuspension in fresh pre-warmed culture medium. The cells were counted and diluted as needed.
The assay reagent was prepared by transferring the buffer solution to the substrate vial and mixing. The solution may be stored for up to 1 week at 4° C. with negligible loss of signal.
Compounds were delivered in assay-ready plates (Proxiplate) and stored at −20° C.
Assays always include 1 reference compound plate containing reference compounds. The plates were spotted with 40 nL of compounds (0.5% DMSO final in cells; serial dilution; 30 μM highest conc. 1/3 dilution, 10 doses, duplicates). The compounds were used at room temperature and 4 μL of pre-warmed media was added to all wells except column 2 and 23. The negative control was prepared by adding 1% DMSO in media. The positive control was prepared by adding the appropriate positive control compound in final concentration of 60 μM in media. The plate was prepared by adding 4 μL negative control to column 23, 4 μL positive control to column 2 and 4 μL cell suspension to all wells in the plate. The plate with cells was then incubated at 37° C. for 2 hours. The assay signal reagent is the Caspase-Glo solution described above, and 8 μL was added to all wells. The plates were then sealed and measured after 30 minutes.
The activity of a test compound was calculated as percent change in apoptosis induction as follows: […]

[2] = molecular target: Myeloid Cell Leukemia 1 (Mcl-1) (Homo sapiens, UniProt Q07820); test: biochemical; assay type: binding; settings: HTRF Ki (nM)
Sequence of Myeloid Cell Leukemia 1 (Mcl-1) (Q07820 whole entry): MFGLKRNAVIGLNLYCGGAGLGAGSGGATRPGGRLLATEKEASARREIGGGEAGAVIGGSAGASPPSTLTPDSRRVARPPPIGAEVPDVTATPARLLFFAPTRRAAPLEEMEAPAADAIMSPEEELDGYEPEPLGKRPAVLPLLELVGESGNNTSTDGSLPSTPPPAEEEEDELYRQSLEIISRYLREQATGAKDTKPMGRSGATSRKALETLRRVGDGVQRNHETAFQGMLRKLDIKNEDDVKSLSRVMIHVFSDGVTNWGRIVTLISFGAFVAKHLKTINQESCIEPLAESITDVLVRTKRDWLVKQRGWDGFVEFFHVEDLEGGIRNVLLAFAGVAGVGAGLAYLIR

MOLP8 cell line = test: MOLP8 CellEvent Caspase-3/7 Green live-cell IncuCyte apoptosis assay; assay type: cell-based, human; settings: averaged values
Method: as §1
Activation of the apoptotic pathway was measured using the CellEvent™ Caspase-3/7 Green ReadyProbes™ Reagent (Thermo Fisher C10423, C10723). This assay produces a green fluorescent stain in cells that enter the apoptosis pathway. CellEvent® Caspase-3/7 Green reagent is a four amino acid peptide (DEVD) conjugated to a nucleic acid-binding dye that is non-fluorescent when not bound to DNA. The CellEvent® Caspase-3/7 Green reagent is intrinsically non-fluorescent, as the DEVD peptide inhibits binding of the dye to DNA. Upon activation of caspase-3/7 in apoptotic cells, the DEVD peptide is cleaved and the free dye can bind DNA, generating a bright green fluorescence. The activation of Caspase-3 and Caspase-7 is downstream of inhibition of MCL-1 or other apoptosis inhibiting proteins in cell lines that are dependent on them.
The live-cell readout on the IncuCyte permits tracking over time of the Caspase activation. […] The IncuCyte readout also allows one to normalize for cell number, as the suspension cells are hard to distribute evenly.
Signals were measured every 2 h for a duration of 22 h. The ratio of the Caspase mask to the Confluence mask, per image, as raw data, was calculated and the kinetic trace for every well was exported to Genedata Screener for analysis.
In Genedata Screener values for 6 h, 12 h, and 22 h from the kinetic traces were extracted. The values were normalized against negative controls (untreated cells). A standard dose-response analysis was performed on the normalized data.
The following data was reported at each of the following three aforementioned time points: (a) The dose-response curve, (b) The qAC50 and qAC50 Mode, and (c) Max Activity.
Cells were maintained in culture medium containing 10% Heat Inactivated (HI) FBS, 2 mM L-Glutamine and 50 μg/mL Gentamycin phenol red free RPMI-1640. Cells were split at 0.4 million/mL twice a week.
On Day 1, plates containing individual wells with test compounds at 10 mM concentration, 150 nL per well. The final concentrations range from […] compound (and no compound control) and compounds were thawed at room temperature for 1 hour. 25 μl of prewarmed medium was added into each well by multidrop (column 1, 3-22, 24), followed by addition of DMSO control (0.6% DMSO) in column 2. The plate was sealed using Breathe-Easy® sealing membrane and shaken for 30 min at room temperature to dissolve the test compound(s) in medium. The plate was then kept in the incubator for 1 hour at 37° C., 5% CO2.
MOLP8 cells in medium at […] (20000/50 μl final in assay) were prepared with CellEvent™ Caspase-3/7 Green Detection Reagent at 4 μM (2 μM final in assay). Once prepared, the cells were added to the test compound plate in an amount of 20000 and the plate was immediately placed in the IncuCyte and imaging started using following settings: 10× objective, 2 s exposure time in green channel, interval of 2 h, acquisition stopped after 22 h.
For analysis in IncuCyte, a Basic Analysis protocol was defined to calculate the “confluence” and “caspase” areas from the “Phase” and “green” images, respectively, as follows: (a) Confluence: Segmentation Adjustment 1, Hole Fill 0, Adjust Size −2, No filters (b) Caspase: Top-Hat segmentation, Radius 10, Threshold 0.3 GCU, Edge Split On with sensitivity 0, Hole Fill 0, Adjust Size 1, and filter on a minimum Area of 20 μm^2. The analyzer is trained on a sufficient number of positive and negative control wells, as well as compound treated wells, verifying that the “confluence” layer detects both live and dead (condensed) cells. […]

[3] = Homo sapiens, MOLP-8, 2 h, read-out: MOLP8 Caspase-Glo AC50 (nM), MOLP8 cells, 2 hours incubation
[4] = read-out: MOLP8 Caspase 3/7 AC50 at 6 h, MOLP8 cells, 6 h
[5] = read-out: MOLP8 Caspase 3/7 AC50 at 12 h, MOLP8 cells, 12 h
[6] = read-out: MOLP8 Caspase 3/7 AC50 at 22 h, MOLP8 cells, 22 h
[7] = MOLP8 cells, 2 hours incubation, read-out: MOLP8 Caspase-Glo AC50
[8] = Homo sapiens, MOLP-8, 6 h, read-out: MOLP8 Caspase 3/7 AC50 at 6 h (μM), MOLP8 cells, 6 h
[9] = Homo sapiens, MOLP-8, 12 h, read-out: MOLP8 Caspase 3/7 AC50 at 12 h (μM), MOLP8 cells, 12 h
[10] = Homo sapiens, MOLP-8, 22 h, read-out: MOLP8 Caspase 3/7 AC50 at 22 h (μM), MOLP8 cells, 22 h

Structure (SMILES) | AC50 [1, 3] [nM] | Ki [2] | AC50 (MOLP8 cell line; [4]) [µM] | AC50 (MOLP8 cell line; [5]) [µM] | AC50 (MOLP8 cell line; [6]) [µM] | AC50 [1, 7] [nM] | AC50 (MOLP8 cell line; [8]) [µM] | AC50 (MOLP8 cell line; [9]) [µM] | AC50 (MOLP8 cell line; [10]) [µM] | AC50 ([1]; Homo sapiens, MOLP-8, 2 h, MOLP8 cells, 2 hours incubation, read-out: MOLP8 Caspase-Glo AC50) [nM]
Cc1nn(CCO)c2c1-c1c(Cl)ccc3c(c(C(=O)O)n(C)c13)CCCOc1cc(cc3ccccc13)SCc1cc(nn1C)CN(C)C2 (single isomer, unassigned) [Compound 40] | 10700 | 2.48 nM and 2.61 nM | ~26.3 | > 30.2 | ~15.6 |  |  |  |  | 
Cc1nn(CCN2CCOCC2)c2c1-c1c(Cl)ccc3c(c(C(=O)O)n(C)c13)CCCOc1cc(cc3ccccc13)SCc1cc(nn1C)CN(C)C2 (single isomer, unassigned) [Compound 41] |  | 0.05 nM and 0.03 nM | 0.19 | 0.2 | 0.18 | 72 |  |  |  | 
Cc1nn(CCN2CCOCC2)c2c1-c1c(Cl)ccc3c(c(C(=O)O)n(C)c13)CCCOc1cc(cc3ccccc13)SCc1cc(nn1C)CN(C)C2 (single isomer, unassigned) [Compound 42] |  | 0.79 nM | 2.96 | 3.18 | 2.98 | 1260 |  |  |  | 
Cc1c2c(nn1C)CSCc1cc(n[nH]1)CSc1cc(c3ccccc3c1)OCCCc1c(C(=O)O)n(C)c3c-2c(Cl)ccc13 [Compound 3] | 284 | 0.08 nM and 0.11 nM |  |  |  |  | 0.6 | 0.55 | 0.47 | 
Cc1c2c(nn1C)CSCc1cc(nn1CCO)CSc1cc(c3ccccc3c1)OCCCc1c(C(=O)O)n(C)c3c-2c(Cl)ccc13 [Compound 6] | 414 | 0.16 nM |  |  |  |  | 0.71 | 0.63 | 0.48 | 
COCCn1nc2cc1CSc1cc(c3ccccc3c1)OCCCc1c(C(=O)O)n(C)c3c(c(Cl)ccc13)-c1c(nn(C)c1C)CSC2 [Compound 10] | 49 | 0.11 nM |  |  |  |  | 0.2 | 0.22 | 0.21 | 
Cc1c2c(nn1C)CSCc1cc(nn1CC1CCOCC1)CSc1cc(c3ccccc3c1)OCCCc1c(C(=O)O)n(C)c3c-2c(Cl)ccc13 [Compound 11] |  | 0.47 nM and 0.43 nM |  |  |  |  | 0.37 | 0.43 | 0.41 | 385
